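48-hour exposure; five concentrations; linearly interpolated endpoints. GI50 is the concentration that inhibits growth by half.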 Calls of active or inactive are those of the source. Rule as the data show it: active = GI50 up to about 1.1 µM and inactive = higher.
How the values were obtained:
Assay in all cases: DTP human tumour cell line panel, 48 h
OVCAR-5 = system: OVCAR-5
NCI-H522 = system: NCI-H522
OVCAR-3 = system: OVCAR-3
CCRF-CEM = system: CCRF-CEM
MCF7 = system: MCF7
U-251 = system: U-251
SNB-19 = system: SNB-19
RPMI-8226 = system: RPMI-8226
MOLT-4 = system: MOLT-4
Malme-3M = system: Malme-3M
SR = system: SR
A498 = system: A498
TK-10 = system: TK-10
SK-MEL-28 = system: SK-MEL-28
SK-OV-3 = system: SK-OV-3
KM12 = system: KM12
NCI-H226 = system: NCI-H226
UACC-62 = system: UACC-62
HOP-62 = system: HOP-62

Measured: GI50

Cc1sc(N)c(S(=O)(=O)c2ccccc2)c1C
inactive: OVCAR-5 > 100 µM | NCI-H522 > 100 µM | OVCAR-3 80.5 µM | CCRF-CEM > 100 µM | MCF7 > 100 µM | U-251 > 100 µM | SNB-19 > 100 µM | RPMI-8226 > 100 µM | MOLT-4 > 100 µM | Malme-3M > 100 µM | SR > 100 µM | A498 > 100 µM | TK-10 > 100 µM | SK-MEL-28 > 100 µM | SK-OV-3 > 100 µM | KM12 > 100 µM | NCI-H226 > 100 µM | UACC-62 > 100 µM

COC(=O)CC1(CNC(=O)OCc2ccccc2)OCCO1
inactive: OVCAR-5 > 100 µM | NCI-H522 > 100 µM | OVCAR-3 > 100 µM | CCRF-CEM > 100 µM | MCF7 > 100 µM | U-251 > 100 µM | SNB-19 > 100 µM | RPMI-8226 > 100 µM | MOLT-4 > 100 µM | Malme-3M > 100 µM | SR > 100 µM | A498 > 100 µM | TK-10 > 100 µM | SK-MEL-28 > 100 µM | SK-OV-3 > 100 µM | KM12 > 100 µM | NCI-H226 > 100 µM | UACC-62 > 100 µM

CN(C)CCCCN1CCc2c(n(C)c3ccccc23)C1=O
inactive: NCI-H522 33.3 µM | OVCAR-3 > 81.3 µM | CCRF-CEM 63.2 µM | MCF7 36.6 µM | SNB-19 > 74 µM | MOLT-4 50.6 µM | HOP-62 38.7 µM | Malme-3M 19.2 µM | SK-MEL-28 16.7 µM | SK-OV-3 > 63.7 µM | KM12 44.4 µM | NCI-H226 > 59.7 µM | UACC-62 17.3 µM

COc1ccc2cc(/C=N/NC(=O)Nc3ccccc3)ccc2c1
inactive: OVCAR-5 > 100 µM | OVCAR-3 > 100 µM | CCRF-CEM > 100 µM | MCF7 > 100 µM | U-251 > 100 µM | SNB-19 > 100 µM | RPMI-8226 > 100 µM | MOLT-4 > 100 µM | HOP-62 > 100 µM | Malme-3M > 100 µM | SR > 100 µM | A498 > 100 µM | TK-10 > 100 µM | SK-MEL-28 > 10 µM | SK-OV-3 > 100 µM | KM12 > 100 µM | NCI-H226 > 100 µM | UACC-62 > 100 µM

COc1ccc2c(c1)/C(=C/CCN(C)C)c1ccccc1S2
inactive: OVCAR-3 > 100 µM | CCRF-CEM 54.6 µM | MCF7 > 10 µM | U-251 > 100 µM | SNB-19 > 100 µM | MOLT-4 67.1 µM | SR 69 µM | A498 > 100 µM | TK-10 > 100 µM | SK-MEL-28 19.4 µM | SK-OV-3 > 100 µM | KM12 > 100 µM | NCI-H226 > 100 µM

O=c1cc(N2CCCC2)[nH]c(=O)n1-c1cccc(C(F)(F)F)c1
inactive: OVCAR-5 > 100 µM | NCI-H522 > 100 µM | OVCAR-3 > 100 µM | CCRF-CEM > 100 µM | MCF7 > 100 µM | U-251 > 100 µM | SNB-19 > 100 µM | RPMI-8226 76.4 µM | MOLT-4 > 100 µM | HOP-62 > 100 µM | Malme-3M > 100 µM | A498 > 100 µM | TK-10 > 100 µM | SK-OV-3 > 100 µM | KM12 > 100 µM | NCI-H226 > 100 µM | UACC-62 > 100 µM

Cc1ccc(-c2c(C#N)c(-c3ccc([N+](=O)[O-])cc3)c(C#N)c(=O)n2NS(=O)(=O)c2ccccc2)cc1
inactive: OVCAR-5 64.4 µM | NCI-H522 28.6 µM | CCRF-CEM 19 µM | MCF7 19.2 µM | U-251 40.3 µM | SNB-19 42.6 µM | MOLT-4 18.9 µM | HOP-62 30.1 µM | Malme-3M 29.9 µM | A498 57.7 µM | TK-10 41.3 µM | SK-MEL-28 36.3 µM | SK-OV-3 22.4 µM | KM12 31.6 µM | NCI-H226 70.3 µM | UACC-62 20.9 µM

COC(=O)c1c(-c2ccccc2)c2sc3ccccc3n2c1N
inactive: OVCAR-5 > 100 µM | NCI-H522 24.2 µM | OVCAR-3 48.9 µM | CCRF-CEM 52.4 µM | MCF7 34.8 µM | U-251 59.4 µM | SNB-19 74.3 µM | RPMI-8226 > 100 µM | HOP-62 31.5 µM | Malme-3M 24.9 µM | SR 76.2 µM | A498 30.5 µM | TK-10 54.3 µM | SK-MEL-28 66.1 µM | SK-OV-3 > 100 µM | KM12 26.1 µM | NCI-H226 > 100 µM | UACC-62 > 100 µM

Cc1ccc(S(=O)(=O)N/N=C/c2c(O)ccc3ccccc23)cc1
inactive: OVCAR-5 29.6 µM | NCI-H522 17 µM | OVCAR-3 19.9 µM | CCRF-CEM 36.7 µM | MCF7 25.5 µM | U-251 27.6 µM | SNB-19 41.1 µM | RPMI-8226 26.7 µM | MOLT-4 20.5 µM | HOP-62 37.7 µM | Malme-3M 24.3 µM | A498 16.7 µM | TK-10 45.8 µM | SK-MEL-28 35.5 µM | SK-OV-3 7.87 µM | KM12 18.9 µM | UACC-62 18.2 µM

COC(=O)C1=C(C(=O)OC)C(N(C)C)C(C(=O)OC)=C(C(=O)OC)S1
inactive: OVCAR-5 > 100 µM | OVCAR-3 > 100 µM | MCF7 > 100 µM | U-251 > 100 µM | SNB-19 > 100 µM | RPMI-8226 > 100 µM | MOLT-4 > 100 µM | HOP-62 > 100 µM | SR > 100 µM | A498 > 100 µM | TK-10 > 100 µM | SK-MEL-28 > 100 µM | SK-OV-3 > 100 µM | KM12 > 100 µM | NCI-H226 > 100 µM | UACC-62 > 100 µM

Cc1ccc2c3c4c(ccc13)C(C)(C)OC4=C(C(C)C)C2=O
inactive: OVCAR-5 > 100 µM | NCI-H522 26.8 µM | OVCAR-3 13.8 µM | CCRF-CEM 48.4 µM | MCF7 44.7 µM | U-251 79.8 µM | SNB-19 > 100 µM | RPMI-8226 43.7 µM | MOLT-4 26.4 µM | HOP-62 15.6 µM | Malme-3M 39.3 µM | A498 > 100 µM | TK-10 67 µM | SK-MEL-28 91.6 µM | SK-OV-3 > 100 µM | KM12 54.3 µM | NCI-H226 5.4 µM | UACC-62 50.9 µM

COc1cc(Nc2nc3ccc(C(F)(F)F)cc3nc2C(=O)O)cc(OC)c1OC
inactive: OVCAR-5 36.1 µM | NCI-H522 21.4 µM | OVCAR-3 32.1 µM | CCRF-CEM 41.6 µM | MCF7 26.2 µM | U-251 19 µM | SNB-19 29.9 µM | RPMI-8226 21.5 µM | MOLT-4 29.2 µM | HOP-62 18.2 µM | Malme-3M 27.1 µM | SR 34.7 µM | TK-10 22.8 µM | SK-MEL-28 26.8 µM | SK-OV-3 29.2 µM | KM12 23.6 µM | NCI-H226 21.4 µM | UACC-62 18.6 µM

From ChEMBL document CHEMBL1201862, “PubChem BioAssay data set” (2004)
